The record followed here is ChEMBL document CHEMBL1158872, “Four new bioactive polybrominated diphenyl ethers of the sponge Dysidea herbacea from West Sumatra, Indonesia” (J Nat Prod, 1997).

The test system of data set [1] is Cladosporium cucumerinum. The experiment in a line: Antimicrobial activity against Cladosporium cucumerinum at 50 nmol after 2 days by TLC based bioautography method. The data set is classed as functional.
The subject of data set [2] is Cladosporium cucumerinum. The experiment in a line: Antimicrobial activity against Cladosporium cucumerinum at 25 nmol after 2 days by TLC based bioautography method. Format: functional.
Data set [3] in a line: Toxicity against Artemia salina. Conditions: in vivo. The data set is classed as organism-based.
For another data set, the system named is Escherichia coli. The experiment in a line: Antimicrobial activity against Escherichia coli. Format: functional, organism-based.

In brackets after ≈: the same amount, converted by molar mass. Activity calls are given as the source filed them. No cut-off for these calls is given here.

The term LC50 denotes the concentration that kills 50% of the test population. Lower therefore signals greater toxicity. Regarding `Oc1c(Br)cc(Br)cc1Oc1ccc(Br)cc1Br`, the “inhibition zone (IZ)” value turned out to be 3.5 mm in the data set with Cladosporium cucumerinum [1] and 1.5 mm in the data set on Cladosporium cucumerinum [2]. In addition, the LC50 in data set [3] worked out at 8.66 µg/mL (≈ 17.3 µM). The result with Escherichia coli was inactive.

As to `COc1c(Br)cc(Br)c(Br)c1Oc1ccccc1Br`, the LC50 in data set [3] worked out at 26.2 µg/mL (≈ 50.9 µM). In addition, in the data set with Escherichia coli, the outcome was inactive.

For `Oc1c(Br)c(Br)c(Br)c(Br)c1Oc1ccccc1Br`, the “inhibition zone (IZ)” value was 14 mm in the data set on Cladosporium cucumerinum [1] and 7 mm in the data set on Cladosporium cucumerinum [2]. Also, in data set [3], the LC50 came to 0.96 µg/mL (≈ 1.65 µM). The outcome with Escherichia coli was inactive.

In the case of `Oc1cc(Br)c(Br)c(Br)c1Oc1ccccc1Br`, the “inhibition zone (IZ)” value with Cladosporium cucumerinum [1] was found to be 13 mm; in the data set on Cladosporium cucumerinum [2], 8 mm. Also, in data set [3], the LC50 was found to be 3.3 µg/mL (≈ 6.58 µM). The result in the data set with Escherichia coli was inactive.

Consider `Oc1c(Br)c(Br)c(Br)c(Br)c1Oc1ccc(Br)cc1Br`, for which the “inhibition zone (IZ)” value in the data set on Cladosporium cucumerinum [1] is given as 8 mm; in the data set on Cladosporium cucumerinum [2], 5 mm. Further, the LC50 in data set [3] is 0.94 µg/mL (≈ 1.43 µM). The result with Escherichia coli was inactive.
